These are literature values, as cited in patent publication US20060287318A1, “Method for treating glaucoma III B” (priority 2000, published 2006).

For series [1] the following is noted: literature description of a compound series.
For series [2], the system named is Aged Rhesus monkeys. Conditions: drug treated vs. control eye; baseline and pilocarpine-stimulated conditions; reported in the concurrently filed application "Methods for Treating Glaucoma I".
Series [3] relates to Rhesus monkeys. The settings on record: accommodative responses to i.m. pilocarpine; reported in the concurrently filed application "Methods for Treating Glaucoma I".

For the molecule `Cc1ccc(C(=O)C[n+]2ccccc2)cc1.[Cl-]` [1-[2-(4-methylphenyl)-2-oxoethyl]-pyridinium chloride], the glucose lowering effect entry in series [1] was “inactive”.

As for `Cc1sc[n+](CC(=O)c2ccccc2)c1C.[Cl-]` [4,5-dimethyl-3-(2-oxoethyl-phenethyl)thiazolium chloride], in series [2], the “improvement in ophthalmologic function (fluid outflow facility)” value is “improvement has been illustrated”. Further, the improvement in accommodation result in series [3] is “Improvement in accommodation has been illustrated”.
